{
  "source": "patent US7303876B2",
  "about": "(Applera Corporation, priority 2000, dated 2007)",
  "key": {"Liver tissue": {"test_system": "Liver tissue", "experiment": "Liver tissue disaggregation by 1% surfactant with or without Proteinase K at 60° C.", "set-up": "Tissue Disaggregation: scale not given here", "conditions": "for Tissue Disaggregation: 60° C., 1% surfactant", "procedure": "To evaluate the ability of various cationic surfactants to increase the digestion of tissue by Proteinase K, liver slices were digested using reaction compositions including one of the sixteen surfactants (shown in Table 4), both with and without Proteinase K. The reducing agent dithiothreitol (DTT) was included to evaluate the effect of reducing conditions on tissue digestion. […] One of the sixteen surfactants was added to one pair of tubes to yield a final concentration of 1% surfactant. The seventeenth pair of tubes served as non-surfactant controls. One milligram (mg) of Proteinase K was added to one tube of each of the seventeen pairs.\nPK=presence or absence of Proteinase K in the reaction composition; Y=Proteinase K was present; N=Proteinase K was not present in the reaction composition."}, "slices of liver": {"test_system": "slices of liver", "experiment": "Maceration of liver slices by reaction compositions at 65° C.", "procedure": "Initially, a series of reaction compositions were analyzed for their ability to disaggregate a biological sample, e.g., slices of liver. These reaction compositions comprised 100 mM Tris, pH 8.0, 20 mM dithiothreitol (DTT), and optionally,1 mg/ml Proteinase K, surfactants (e.g., cationic, nonionic and anionic detergents), chaotropes, or the additive 1-methyl-2-pyrollidinone (Sigma). Each reaction compositions was placed in a tube with a slice of liver and then incubated at 65° C. The tubes were observed periodically to determine which reaction compositions were able to efficiently macerate the sample."}, "[1]": {"conditions": "Fifteen Minutes Incubation, Proteinase K not present (N)"}, "[2]": {"conditions": "Fifteen Minutes Incubation, Proteinase K present (Y)"}, "[3]": {"conditions": "Fifty-Two Minutes Incubation, Proteinase K not present (N)"}, "[4]": {"conditions": "Fifty-Two Minutes Incubation, Proteinase K present (Y)"}, "[5]": {"conditions": "1 mg/ml Proteinase K, 16-24 hr, 65° C., additive 0.1%"}, "[6]": {"conditions": "1 mg/ml Proteinase K, 16-24 hr, 65° C., additive 1%"}, "[7]": {"conditions": "1 mg/ml Proteinase K, 1 hr, 65° C., additive 0.1%"}, "[8]": {"conditions": "1 mg/ml Proteinase K, 1 hr, 65° C., additive 1%"}, "[9]": {"conditions": "No Proteinase K, 16-24 hr, 65° C., additive 2%"}, "[10]": {"conditions": "No Proteinase K, 72 hr, 65° C., additive 2%"}},
  "note": "Where two headings read alike, the source gives them in different places.",
  "data": [
    {"smiles": "O[C@H](CS)[C@H](O)CS", "note": "(racemic) [DTT, dithiothreitol]", "values": [
      {"measurement": "effect of reducing agent on tissue disaggregation", "setting": "Liver tissue; 20 mM dithiothreitol", "value": "did not seem to significantly effect tissue disaggregation"}
    ]},
    {"smiles": "CCCCCCCCCCCC[N+](C)(C)Cc1ccccc1.[Br-]", "note": "[Benzyldimethyldodecylammonium bromide]", "values": [
      {"measurement": "Tissue Disaggregation", "setting": "Liver tissue; [1]", "value": 0},
      {"measurement": "Tissue Disaggregation", "setting": "Liver tissue; [2]", "value": 0},
      {"measurement": "Tissue Disaggregation", "setting": "Liver tissue; [3]", "value": 0},
      {"measurement": "Tissue Disaggregation", "setting": "Liver tissue; [4]", "value": 1}
    ]},
    {"smiles": "CCCCCCCCCCCCCCCC[N+](C)(C)Cc1ccccc1.[Br-]", "note": "[Benzyldimethylhexadecylammonium bromide]", "values": [
      {"measurement": "Tissue Disaggregation", "setting": "Liver tissue; [1]", "value": 0},
      {"measurement": "Tissue Disaggregation", "setting": "Liver tissue; [2]", "value": 0},
      {"measurement": "Tissue Disaggregation", "setting": "Liver tissue; [3]", "value": 0},
      {"measurement": "Tissue Disaggregation", "setting": "Liver tissue; [4]", "value": 1}
    ]},
    {"smiles": "C[C@H](CCC(=O)O)[C@H]1CC[C@H]2[C@@H]3[C@H](O)C[C@@H]4C[C@H](O)CC[C@]4(C)[C@H]3CC[C@]12C", "note": "[Chenodeoxycholic Acid]", "values": [
      {"measurement": "maceration of liver slice", "setting": "slices of liver; [5]", "value": 0, "unit": "%"},
      {"measurement": "maceration of liver slice", "setting": "slices of liver; [6]", "value": 0, "unit": "%"},
      {"measurement": "maceration of liver slice", "setting": "slices of liver; [7]", "value": 0, "unit": "%"},
      {"measurement": "maceration of liver slice", "setting": "slices of liver; [8]", "value": 0, "unit": "%"},
      {"measurement": "maceration of liver slice", "setting": "slices of liver; [9]", "value": 0, "unit": "%"}
    ]},
    {"smiles": "C[C@H](CCC(=O)O)[C@H]1CC[C@H]2[C@@H]3[C@H](O)C[C@@H]4C[C@H](O)CC[C@]4(C)[C@H]3C[C@H](O)[C@]12C", "note": "[Cholic Acid]", "values": [
      {"measurement": "maceration of liver slice", "setting": "slices of liver; [9]", "value": 0, "unit": "%"}
    ]},
    {"smiles": "C[C@H](CCC(=O)NCC(=O)O)[C@H]1CC[C@H]2[C@@H]3[C@H](O)C[C@@H]4C[C@H](O)CC[C@]4(C)[C@H]3C[C@H](O)[C@]12C", "note": "[Glycocholic Acid]", "values": [
      {"measurement": "maceration of liver slice", "setting": "slices of liver; [5]", "value": 0, "unit": "%"},
      {"measurement": "maceration of liver slice", "setting": "slices of liver; [6]", "value": 0, "unit": "%"},
      {"measurement": "maceration of liver slice", "setting": "slices of liver; [7]", "value": 0, "unit": "%"},
      {"measurement": "maceration of liver slice", "setting": "slices of liver; [8]", "value": 0, "unit": "%"}
    ]},
    {"smiles": "Cl.N=C(N)N", "note": "[Guanidinium chloride]", "values": [
      {"measurement": "maceration of liver slice", "setting": "slices of liver; 1 mg/ml Proteinase K, 2-5 hr, 65° C., additive 2 M", "value": 0, "unit": "%"},
      {"measurement": "maceration of liver slice", "setting": "slices of liver; No Proteinase K, 2-5 hr, 65° C., additive 2 M", "value": 0, "unit": "%"}
    ]},
    {"smiles": "N#CS.N=C(N)N", "note": "[Guanidinium thiocyanate]", "values": [
      {"measurement": "maceration of liver slice", "setting": "slices of liver; 1 mg/ml Proteinase K, 2-5 hr, 65° C., additive 1 M", "value": 25, "unit": "%"},
      {"measurement": "maceration of liver slice", "setting": "slices of liver; No Proteinase K, 2-5 hr, 65° C., additive 1 M", "value": 0, "unit": "%"}
    ]},
    {"smiles": "CCCCC(CC)COS(=O)(=O)[O-].[Na+]", "note": "(stereo not drawn) [NiaProof Type 8]", "values": [
      {"measurement": "maceration of liver slice", "setting": "slices of liver; [5]", "value": 0, "unit": "%"},
      {"measurement": "maceration of liver slice", "setting": "slices of liver; [6]", "value": 0, "unit": "%"},
      {"measurement": "maceration of liver slice", "setting": "slices of liver; [7]", "value": 0, "unit": "%"},
      {"measurement": "maceration of liver slice", "setting": "slices of liver; [8]", "value": 0, "unit": "%"},
      {"measurement": "maceration of liver slice", "setting": "slices of liver; No Proteinase K, 2-5 hr, 65° C., additive 2%", "value": 0, "unit": "%"}
    ]},
    {"smiles": "CCCCCCCC(=O)O", "note": "[Octanonic Acid]", "values": [
      {"measurement": "maceration of liver slice", "setting": "slices of liver; [10]", "value": 0, "unit": "%"}
    ]},
    {"smiles": "CCCCCCCCS(=O)(=O)O", "note": "[Octyl sulfonate]", "values": [
      {"measurement": "maceration of liver slice", "setting": "slices of liver; [10]", "value": 0, "unit": "%"}
    ]},
    {"smiles": "C[C@H](CCC(=O)NCCS(=O)(=O)O)[C@H]1CC[C@H]2[C@@H]3[C@H](O)C[C@@H]4C[C@H](O)CC[C@]4(C)[C@H]3CC[C@]12C", "note": "[Taurochenodeoxycholic Acid]", "values": [
      {"measurement": "maceration of liver slice", "setting": "slices of liver; [5]", "value": 0, "unit": "%"},
      {"measurement": "maceration of liver slice", "setting": "slices of liver; [6]", "value": 0, "unit": "%"},
      {"measurement": "maceration of liver slice", "setting": "slices of liver; [7]", "value": 0, "unit": "%"},
      {"measurement": "maceration of liver slice", "setting": "slices of liver; [8]", "value": 0, "unit": "%"}
    ]},
    {"smiles": "C[C@H](CCC(=O)NCCS(=O)(=O)O)[C@H]1CC[C@H]2[C@@H]3[C@H](O)C[C@@H]4C[C@H](O)CC[C@]4(C)[C@H]3C[C@H](O)[C@]12C", "note": "[Taurocholic Acid]", "values": [
      {"measurement": "maceration of liver slice", "setting": "slices of liver", "value": 0, "unit": "%"}
    ]},
    {"smiles": "C[C@H](CCC(=O)NCCS(=O)(=O)O)[C@H]1CC[C@H]2[C@@H]3CC[C@@H]4C[C@H](O)CC[C@]4(C)[C@H]3C[C@H](O)[C@]12C", "note": "[Taurodeoxycholic Acid]", "values": [
      {"measurement": "maceration of liver slice", "setting": "slices of liver; [5]", "value": 0, "unit": "%"},
      {"measurement": "maceration of liver slice", "setting": "slices of liver; [6]", "value": 0, "unit": "%"},
      {"measurement": "maceration of liver slice", "setting": "slices of liver; [7]", "value": 0, "unit": "%"},
      {"measurement": "maceration of liver slice", "setting": "slices of liver; [8]", "value": 0, "unit": "%"}
    ]},
    {"smiles": "C[N+](C)(C)C.[Cl-]", "note": "[Tetramethylammonium chloride]", "values": [
      {"measurement": "maceration of liver slice", "setting": "slices of liver; 1 mg/ml Proteinase K, 16-24 hr, 65° C., additive 0.1 M", "value": 0, "unit": "%"},
      {"measurement": "maceration of liver slice", "setting": "slices of liver; 1 mg/ml Proteinase K, 16-24 hr, 65° C., additive 1 M", "value": 0, "unit": "%"},
      {"measurement": "maceration of liver slice", "setting": "slices of liver; 1 mg/ml Proteinase K, 1 hr, 65° C., additive 0.1 M", "value": 0, "unit": "%"},
      {"measurement": "maceration of liver slice", "setting": "slices of liver; 1 mg/ml Proteinase K, 1 hr, 65° C., additive 1 M", "value": 0, "unit": "%"},
      {"measurement": "maceration of liver slice", "setting": "slices of liver; No Proteinase K, 16-24 hr, 65° C., additive 0.1 M", "value": 0, "unit": "%"},
      {"measurement": "maceration of liver slice", "setting": "slices of liver; No Proteinase K, 16-24 hr, 65° C., additive 1 M", "value": 0, "unit": "%"}
    ]}
  ]
}
